# Reference: US6737383B1, “Herbicidal oxadiazolidines” (priority 1999, dated 2004)
# What was measured:
# blackgrass = assay: Test B pre/postemergence blackgrass; format: in vivo, Alopecurus myosuroides
# Outline: (§1)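 Herbicidal effect was estimated by eye on a ten-point control scale after plants spent twelve to sixteen days in a greenhouse following soil or foliar treatment. Foliar sprays targeted plants at one to four leaves; all doses were formulated in a non-phytotoxic solvent with surfactant.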
# corn = assay: Test B pre/postemergence corn; format: in vivo, Zea mays
# Outline: as §1
# wheat = assay: Test B pre/postemergence wheat; format: in vivo, Triticum aestivum; details: for Plant response rating, Wheat: scale of 0 to 10 where 0 is no effect and 10 is complete control
# Outline: as §1
# pigweed = assay: Test B pre/postemergence pigweed; format: in vivo, Amaranthus retroflexus; details: for Plant response rating, Redroot pigweed: scale of 0 to 10 where 0 is no effect and 10 is complete control
# Outline: as §1
# smallflower flatsedge = assay: Test B flood test smallflower flatsedge; format: in vivo, Cyperus difformis
# Outline: (§2)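 Each value is a visual injury score relative to controls, with 10 meaning complete control and 0 no effect. Evaluation took place twelve to sixteen days after the 2-leaf-stage plants were treated and kept in the greenhouse.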
# duck salad = assay: Test B flood test duck salad; format: in vivo, Heteranthera limosa
# Outline: as §2
# surinam grass = assay: Test B pre/postemergence surinam grass; format: in vivo, Brachiaria decumbens
# Outline: as §1
# bamyardgrass = assay: Test B flood test barnyardgrass; format: in vivo, Echinochloa crus-galli
# Outline: as §2
# cocklebur = assay: Test B pre/postemergence cocklebur; format: in vivo, Xanthium strumarium
# Outline: as §1
# morningglory = assay: Test B pre/postemergence morningglory; format: in vivo, Ipomoea hederacea; details: for Plant response rating, Morningglory: scale of 0 to 10 where 0 is no effect and 10 is complete control
# Outline: as §1
# soybean = assay: Test B pre/postemergence soybean; format: in vivo, Glycine max; details: for Plant response rating, Soybean: scale of 0 to 10 where 0 is no effect and 10 is complete control
# Outline: as §1
# velvetleaf = assay: Test B pre/postemergence velvetleaf; format: in vivo, Abutilon theophrasti; details: for Plant response rating, Velvetleaf: scale of 0 to 10 where 0 is no effect and 10 is complete control
# Outline: as §1
# giant foxtail = assay: Test B pre/postemergence giant foxtail; format: in vivo, Setaria faberii
# Outline: as §1
# sugar beet = assay: Test B pre/postemergence sugar beet; format: in vivo, Beta vulgaris; details: for Plant response rating, Sugarbeets: scale of 0 to 10 where 0 is no effect and 10 is complete control
# Outline: as §1
# crabgrass = assay: Test B pre/postemergence crabgrass; format: in vivo, Digitaria sanguinalis
# Outline: as §1
# wild oat = assay: Test B pre/postemergence wild oat; format: in vivo, Avena fatua; details: for Plant response rating, Wild oats: scale of 0 to 10 where 0 is no effect and 10 is complete control
# Outline: as §1
# rape = assay: Test B pre/postemergence rape; format: in vivo, Brassica napus; details: for Plant response rating, Rape: scale of 0 to 10 where 0 is no effect and 10 is complete control
# Outline: as §1
# purple nutsedge = assay: Test B pre/postemergence purple nutsedge; format: in vivo, Cyperus rotundus; details: for Plant response rating, Nutsedge: scale of 0 to 10 where 0 is no effect and 10 is complete control
# Outline: as §1
# rice = assay: Test B flood test rice; format: in vivo, Oryza sativa
# Outline: as §2
# [1] = Postemergence, Rate 250 g/ha, scale 0 to 10
# [2] = Postemergence, Rate 500 g/ha, scale of 0 to 10 where 0 is no effect and 10 is complete control
# [3] = Preemergence, Rate 62 g/ha, scale of 0 to 10 where 0 is no effect and 10 is complete control
# [4] = Preemergence, Rate 125 g/ha, scale of 0 to 10 where 0 is no effect and 10 is complete control
# [5] = Preemergence, Rate 250 g/ha, scale 0 to 10, 0 is no effect, 10 is complete control
# [6] = Preemergence, Rate 500 g/ha, scale 0 to 10, 0 is no effect, 10 is complete control
# [7] = Rate 62 g/ha, Postemergence, scale 0 to 10 (0 no effect, 10 complete control)
# [8] = Rate 125 g/ha, Postemergence, scale 0 to 10, 0 is no effect, 10 is complete control
# [9] = Rate 62 g/ha, flood test species, Pre-emergence, visual evaluation after twelve to sixteen days
# [10] = Rate 125 g/ha, under heading Pre-emergence, flood test species, visual evaluation after twelve to sixteen days
# [11] = Rate 250 g/ha, Pre-emergence (flood test species), scale 0 to 10, 0 is no effect, 10 is complete control
# [12] = Rate 500 g/ha, Pre-emergence, flood test species, scale 0 to 10 (0 no effect, 10 complete control)
smiles,measurement,setting,value
CC(C)N(C(=O)n1oc(=O)n(C(CF)CF)c1=O)c1ccc(Cl)cc1 [Compound 468],Blackgrass plant response rating,blackgrass; [1],7
same,Blackgrass plant response rating,blackgrass; [2],8
same,"Plant response rating, Blackgrass",blackgrass; [3],3
same,"Plant response rating, Blackgrass",blackgrass; [4],4
same,Blackgrass plant response rating,blackgrass; [5],5
same,Blackgrass plant response rating,blackgrass; [6],9
same,Blackgrass plant response rating,blackgrass; [7],0
same,Blackgrass plant response rating,blackgrass; [8],5
same,Corn plant response rating,corn; [1],0
same,Corn plant response rating,corn; [2],0
same,"Plant response rating, Corn",corn; [3],0
same,"Plant response rating, Corn",corn; [4],0
same,Corn plant response rating,corn; [5],0
same,Corn plant response rating,corn; [6],2
same,Corn plant response rating,corn; [7],0
same,Corn plant response rating,corn; [8],0
same,Wheat plant response rating,wheat; [1],0
same,"Plant response rating, Wheat","wheat; Preemergence, Rate 62 g/ha",0
same,"Plant response rating, Wheat","wheat; Preemergence, Rate 125 g/ha",0
same,Wheat plant response rating,wheat; [5],0
same,Wheat plant response rating,wheat; [6],6
same,Wheat plant response rating,wheat; [7],0
same,Wheat plant response rating,wheat; [8],0
same,Redroot pigweed plant response rating,pigweed; [1],4
same,"Plant response rating, Redroot pigweed","pigweed; Preemergence, Rate 62 g/ha",0
same,"Plant response rating, Redroot pigweed","pigweed; Preemergence, Rate 125 g/ha",4
same,Redroot pigweed plant response rating,pigweed; [5],8
same,Redroot pigweed plant response rating,pigweed; [6],10
same,Redroot pigweed plant response rating,pigweed; [7],0
same,Redroot pigweed plant response rating,pigweed; [8],2
same,"Plant response rating, S. Flatsedge (0 to 10 scale, 0 is no effect, 10 is complete control)",smallflower flatsedge; [9],0
same,"S. Flatsedge plant response rating (0 to 10 scale, 0 is no effect, 10 is complete control)",smallflower flatsedge; [10],0
same,S. Flatsedge plant response rating,smallflower flatsedge; [11],0
same,S. Flatsedge plant response rating,smallflower flatsedge; [12],0
same,"Plant response rating, Ducksalad (0 to 10 scale, 0 is no effect, 10 is complete control)",duck salad; [9],0
same,"Ducksalad plant response rating (0 to 10 scale, 0 is no effect, 10 is complete control)",duck salad; [10],0
same,Ducksalad plant response rating,duck salad; [11],0
same,Ducksalad plant response rating,duck salad; [12],0
same,B. signalgrass plant response rating,"surinam grass; Postemergence, Rate 250 g/ha, scale 0 to 10, 0 no effect, 10 complete control",0
same,B. signalgrass plant response rating,surinam grass; [2],0
same,"Plant response rating, B. signalgrass",surinam grass; [3],0
same,"Plant response rating, B. signalgrass",surinam grass; [4],2
same,B. signalgrass plant response rating,surinam grass; [5],3
same,B. signalgrass plant response rating,surinam grass; [6],4
same,B. signalgrass plant response rating,surinam grass; [7],0
same,B. signalgrass plant response rating,surinam grass; [8],0
same,"Plant response rating, Barnyardgrass (0 to 10 scale, 0 is no effect, 10 is complete control)",bamyardgrass; [9],0
same,"Barnyardgrass plant response rating (0 to 10 scale, 0 is no effect, 10 is complete control)",bamyardgrass; [10],0
same,Barnyardgrass plant response rating,bamyardgrass; [11],0
same,Barnyardgrass plant response rating,bamyardgrass; [12],0
same,Cocklebur plant response rating,cocklebur; [1],2
same,Cocklebur plant response rating,cocklebur; [2],4
same,"Plant response rating, Cocklebur",cocklebur; [3],0
same,"Plant response rating, Cocklebur",cocklebur; [4],0
same,Cocklebur plant response rating,cocklebur; [5],0
same,Cocklebur plant response rating,cocklebur; [6],0
same,Cocklebur plant response rating,cocklebur; [7],0
same,Cocklebur plant response rating,cocklebur; [8],0
same,Morningglory plant response rating,morningglory; [1],4
same,"Plant response rating, Morningglory","morningglory; Preemergence, Rate 62 g/ha",0
same,"Plant response rating, Morningglory","morningglory; Preemergence, Rate 125 g/ha",0
same,Morningglory plant response rating,morningglory; [5],0
same,Morningglory plant response rating,morningglory; [6],2
same,Morningglory plant response rating,morningglory; [7],2
same,Morningglory plant response rating,morningglory; [8],3
same,Soybean plant response rating,soybean; [1],1
same,"Plant response rating, Soybean","soybean; Preemergence, Rate 62 g/ha",0
same,"Plant response rating, Soybean","soybean; Preemergence, Rate 125 g/ha",0
same,Soybean plant response rating,soybean; [5],0
same,Soybean plant response rating,soybean; [6],0
same,Soybean plant response rating,soybean; [7],1
same,Soybean plant response rating,soybean; [8],1
same,Velvetleaf plant response rating,velvetleaf; [1],2
same,"Plant response rating, Velvetleaf","velvetleaf; Preemergence, Rate 62 g/ha",0
same,"Plant response rating, Velvetleaf","velvetleaf; Preemergence, Rate 125 g/ha",0
same,Velvetleaf plant response rating,velvetleaf; [5],1
same,Velvetleaf plant response rating,velvetleaf; [6],4
same,Velvetleaf plant response rating,velvetleaf; [7],0
same,Velvetleaf plant response rating,velvetleaf; [8],0
same,Giant foxtail plant response rating,giant foxtail; [1],9
same,Giant foxtail plant response rating,giant foxtail; [2],9
same,"Plant response rating, Giant foxtail",giant foxtail; [3],6
same,"Plant response rating, Giant foxtail",giant foxtail; [4],8
same,Giant foxtail plant response rating,giant foxtail; [5],9
same,Giant foxtail plant response rating,giant foxtail; [6],10
same,Giant foxtail plant response rating,giant foxtail; [7],1
same,Giant foxtail plant response rating,giant foxtail; [8],3
same,Sugarbeets plant response rating,sugar beet; [1],0
same,"Plant response rating, Sugarbeets","sugar beet; Preemergence, Rate 62 g/ha",0
same,"Plant response rating, Sugarbeets","sugar beet; Preemergence, Rate 125 g/ha",0
same,Sugarbeets plant response rating,sugar beet; [5],2
same,Sugarbeets plant response rating,sugar beet; [6],6
same,Sugarbeets plant response rating,sugar beet; [7],0
same,Sugarbeets plant response rating,sugar beet; [8],0
same,Crabgrass plant response rating,crabgrass; [1],9
same,Crabgrass plant response rating,crabgrass; [2],9
same,"Plant response rating, Crabgrass",crabgrass; [3],9
same,"Plant response rating, Crabgrass",crabgrass; [4],9
same,Crabgrass plant response rating,crabgrass; [5],9
same,Crabgrass plant response rating,crabgrass; [6],9
same,Crabgrass plant response rating,crabgrass; [7],3
same,Wild oats plant response rating,wild oat; [1],0
same,"Plant response rating, Wild oats","wild oat; Preemergence, Rate 62 g/ha",0
same,"Plant response rating, Wild oats","wild oat; Preemergence, Rate 125 g/ha",0
same,Wild oats plant response rating,wild oat; [5],3
same,Wild oats plant response rating,wild oat; [6],7
same,Wild oats plant response rating,wild oat; [7],0
same,Wild oats plant response rating,wild oat; [8],0
same,Rape plant response rating,rape; [1],0
same,"Plant response rating, Rape","rape; Preemergence, Rate 62 g/ha",0
same,"Plant response rating, Rape","rape; Preemergence, Rate 125 g/ha",0
same,Rape plant response rating,rape; [5],3
same,Rape plant response rating,rape; [6],6
same,Rape plant response rating,rape; [7],0
same,Rape plant response rating,rape; [8],0
same,Nutsedge plant response rating,purple nutsedge; [1],0
same,"Plant response rating, Nutsedge","purple nutsedge; Preemergence, Rate 62 g/ha",0
same,"Plant response rating, Nutsedge","purple nutsedge; Preemergence, Rate 125 g/ha",0
same,Nutsedge plant response rating,purple nutsedge; [5],0
same,Nutsedge plant response rating,purple nutsedge; [6],0
same,Nutsedge plant response rating,purple nutsedge; [7],0
same,Nutsedge plant response rating,purple nutsedge; [8],0
same,"Plant response rating, Rice (0 to 10 scale, 0 is no effect, 10 is complete control)",rice; [9],0
same,"Rice plant response rating (0 to 10 scale, 0 is no effect, 10 is complete control)",rice; [10],0
same,Rice plant response rating,rice; [11],0
same,Rice plant response rating,rice; [12],0
